This passage reports Ki results from BindingDB's records for doi:10.1021/jm00015a023 (Research Triangle Institute, 1995).

The term Ki denotes a measure of affinity in units of concentration, obtained from inhibition or displacement.

Assay [1] in a line: Binding affinity was measured on Sigma receptor type 2 using [3H]- DTG as radioligand.
The nature of assay [2]: Binding affinity was measured on Sigma receptor type 1 using [3H]- pentazocine as radioligand.
Assay [3] concerns the target Sigma non-opioid intracellular receptor 1 (Homo sapiens, UniProt Q99720). The assay can be described thus: Binding affinity was measured on Sigma receptor type 1 using [3H]- pentazocine as radioligand.
Assay [4] in a line: Binding affinity was measured on Sigma receptor type 1 using [3H]- pentazocine as radioligand. The source holds these as a separate data set.

Chain of Sigma non-opioid intracellular receptor 1 (Q99720 whole entry): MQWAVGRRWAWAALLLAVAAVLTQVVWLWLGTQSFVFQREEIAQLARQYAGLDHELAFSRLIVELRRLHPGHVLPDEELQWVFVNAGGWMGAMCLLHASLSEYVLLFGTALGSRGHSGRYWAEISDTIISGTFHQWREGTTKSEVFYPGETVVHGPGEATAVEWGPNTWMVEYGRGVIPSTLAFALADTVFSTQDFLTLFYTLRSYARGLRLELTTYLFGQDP

As to `CC(C)=CCN1CCC2(C)c3c(ccc(O)c3Br)CC1C2C` (stereo not given) [7-Bromo-6,11-dimethyl-3-(3-methyl-but-2-enyl)-1,2,3,4,5,6-hexahydro-2,6-methano-benzo[d]azocin-8-ol], the Ki came to 0.283 µM in assay [1] and 0.00249 µM in assay [2]. In the case of `CC1C2Cc3cc(Cl)c(O)c(Cl)c3C1(C)CCN2Cc1ccccc1` (stereo not given) [3-Benzyl-7,9-dichloro-6,11-dimethyl-1,2,3,4,5,6-hexahydro-2,6-methano-benzo[d]azocin-8-ol], the Ki was determined as 2.17 µM in assay [1] and 0.0715 µM in assay [2].

`CC(C)=CCN1CCC2(C)c3c(ccc(O)c3Cl)CC1C2C` (stereo not given) [7-Chloro-6,11-dimethyl-3-(3-methyl-but-2-enyl)-1,2,3,4,5,6-hexahydro-2,6-methano-benzo[d]azocin-8-ol]: the inhibition constant Ki in assay [1] was found to be 4.96 µM; in assay [2], 0.00262 µM.

`CC1C2Cc3cc(Br)c(O)cc3C1(C)CCN2Cc1ccccc1` (stereo not given) [3-Benzyl-9-bromo-6,11-dimethyl-1,2,3,4,5,6-hexahydro-2,6-methano-benzo[d]azocin-8-ol]: the inhibition constant (Ki) in assay [1] turned out to be 1.22 µM; in assay [2], 0.0686 µM.

In the case of `CC1C2Cc3ccc(O)c(Cl)c3C1(C)CCN2Cc1ccccc1` (stereo not given) [3-Benzyl-7-chloro-6,11-dimethyl-1,2,3,4,5,6-hexahydro-2,6-methano-benzo[d]azocin-8-ol], the values for the Ki in assay [1] and in assay [2] were 0.764 µM and 0.00172 µM, respectively.

For the molecule `CC(C)=CCN1CCC2(C)c3cc(O)c(Br)cc3CC1C2C` (stereo not given) [9-Bromo-6,11-dimethyl-3-(3-methyl-but-2-enyl)-1,2,3,4,5,6-hexahydro-2,6-methano-benzo[d]azocin-8-ol], the Ki in assay [3] was found to be 0.144 µM. `CC1C2Cc3cc(Br)c(O)c(Br)c3C1(C)CCN2Cc1ccccc1` (stereo not given) [3-Benzyl-7,9-dibromo-6,11-dimethyl-1,2,3,4,5,6-hexahydro-2,6-methano-benzo[d]azocin-8-ol]: the Ki in assay [1] was found to be 2.01 µM; in assay [4] it was 0.0706 µM. On to `CC1C2Cc3cc(I)c(O)cc3C1(C)CCN2Cc1ccccc1` (stereo not given) [3-Benzyl-9-iodo-6,11-dimethyl-1,2,3,4,5,6-hexahydro-2,6-methano-benzo[d]azocin-8-ol], for which the Ki amounted to 0.597 µM in assay [1] and 0.231 µM in assay [2]. For `CC(C)=CCN1CCC2(C)c3c(cc(Br)c(O)c3Br)CC1C2C` (stereo not given) [7,9-Dibromo-6,11-dimethyl-3-(3-methyl-but-2-enyl)-1,2,3,4,5,6-hexahydro-2,6-methano-benzo[d]azocin-8-ol] the same measures were 0.211 µM and 0.12 µM. For `CC1C2Cc3ccc(O)c(Br)c3C1(C)CCN2Cc1ccccc1` (stereo not given) [3-Benzyl-7-bromo-6,11-dimethyl-1,2,3,4,5,6-hexahydro-2,6-methano-benzo[d]azocin-8-ol], in that order: 0.346 µM and 0.00175 µM. The molecule `CC(C)=CCN1CCC2(C)c3cc(O)c(I)cc3CC1C2C` (stereo not given) [9-Iodo-6,11-dimethyl-3-(3-methyl-but-2-enyl)-1,2,3,4,5,6-hexahydro-2,6-methano-benzo[d]azocin-8-ol] had a Ki in assay [3] of 0.0352 µM.
